Reference: ChEMBL document CHEMBL5465560, “Selectivity Literature for EUbOPEN Chemogenomic Library” (2024)
One block for each compound: values may come before it.

What was measured:
[1] = molecular target: T1, Serine/threonine-protein kinase 17B (Homo sapiens) (UniProt O94768); details: at 10 µM
T1 sequence (whole entry): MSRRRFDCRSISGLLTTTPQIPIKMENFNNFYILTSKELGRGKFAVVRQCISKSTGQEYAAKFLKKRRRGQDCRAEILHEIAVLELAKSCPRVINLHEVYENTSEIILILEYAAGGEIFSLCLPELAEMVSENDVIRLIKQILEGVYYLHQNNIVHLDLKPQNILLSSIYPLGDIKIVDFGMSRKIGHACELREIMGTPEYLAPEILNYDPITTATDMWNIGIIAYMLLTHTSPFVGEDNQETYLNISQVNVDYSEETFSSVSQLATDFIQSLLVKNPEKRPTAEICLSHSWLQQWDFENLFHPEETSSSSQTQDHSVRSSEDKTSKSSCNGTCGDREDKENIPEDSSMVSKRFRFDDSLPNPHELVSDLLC

[2] = molecular target: ALK tyrosine kinase receptor (Homo sapiens, UniProt Q9UM73); assay: Selectivity interaction (KinaseProfiler screening (Millipore)) EUB0000601a ALK; details: at 3 µM
Chain of ALK tyrosine kinase receptor (Q9UM73 19-1620 limits assumed): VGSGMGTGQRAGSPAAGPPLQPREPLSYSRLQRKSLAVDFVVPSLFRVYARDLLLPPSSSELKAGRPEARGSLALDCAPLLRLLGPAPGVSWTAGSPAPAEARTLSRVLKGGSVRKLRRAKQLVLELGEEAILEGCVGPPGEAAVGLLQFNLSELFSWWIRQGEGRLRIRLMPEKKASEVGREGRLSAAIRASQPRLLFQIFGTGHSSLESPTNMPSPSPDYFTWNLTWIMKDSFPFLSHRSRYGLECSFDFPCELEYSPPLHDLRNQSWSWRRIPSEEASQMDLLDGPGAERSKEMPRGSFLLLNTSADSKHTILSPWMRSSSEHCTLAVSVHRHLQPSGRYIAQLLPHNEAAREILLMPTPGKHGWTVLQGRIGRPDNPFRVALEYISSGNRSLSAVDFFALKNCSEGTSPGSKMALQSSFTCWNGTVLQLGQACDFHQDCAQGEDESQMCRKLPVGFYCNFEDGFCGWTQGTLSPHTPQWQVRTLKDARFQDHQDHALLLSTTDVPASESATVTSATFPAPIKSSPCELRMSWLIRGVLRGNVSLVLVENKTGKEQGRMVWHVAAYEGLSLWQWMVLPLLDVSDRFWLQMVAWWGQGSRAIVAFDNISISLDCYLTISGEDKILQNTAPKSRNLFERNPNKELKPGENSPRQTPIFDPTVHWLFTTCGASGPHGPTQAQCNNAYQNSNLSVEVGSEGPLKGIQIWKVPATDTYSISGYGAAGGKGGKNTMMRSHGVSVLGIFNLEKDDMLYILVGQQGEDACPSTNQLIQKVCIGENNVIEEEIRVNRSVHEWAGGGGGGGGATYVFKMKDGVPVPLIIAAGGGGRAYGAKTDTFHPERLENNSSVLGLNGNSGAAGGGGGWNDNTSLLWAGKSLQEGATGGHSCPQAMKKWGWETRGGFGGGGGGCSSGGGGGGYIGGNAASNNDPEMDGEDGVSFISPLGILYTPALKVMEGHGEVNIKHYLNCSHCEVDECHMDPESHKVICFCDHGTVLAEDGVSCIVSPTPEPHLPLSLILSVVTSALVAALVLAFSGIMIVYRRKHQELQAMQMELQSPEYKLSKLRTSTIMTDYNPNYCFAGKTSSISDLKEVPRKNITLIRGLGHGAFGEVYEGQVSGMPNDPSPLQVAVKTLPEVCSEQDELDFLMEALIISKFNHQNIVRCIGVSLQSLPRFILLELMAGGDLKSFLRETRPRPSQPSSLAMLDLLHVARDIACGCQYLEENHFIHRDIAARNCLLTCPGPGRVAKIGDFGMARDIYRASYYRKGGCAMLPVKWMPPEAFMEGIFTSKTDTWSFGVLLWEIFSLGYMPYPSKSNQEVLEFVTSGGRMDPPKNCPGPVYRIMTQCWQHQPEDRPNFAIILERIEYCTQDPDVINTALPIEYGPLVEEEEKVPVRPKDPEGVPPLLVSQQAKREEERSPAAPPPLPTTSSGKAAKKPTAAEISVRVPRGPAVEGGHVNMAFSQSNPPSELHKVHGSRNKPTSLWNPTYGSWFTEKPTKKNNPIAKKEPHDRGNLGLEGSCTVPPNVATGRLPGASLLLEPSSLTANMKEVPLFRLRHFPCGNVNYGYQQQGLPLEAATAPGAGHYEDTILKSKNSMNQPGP

[3] = molecular target: Serine/threonine-protein kinase Chk2 (Homo sapiens) (UniProt O96017); assay: Selectivity interaction (KinomeScan (DiscoverX)) EUB0000229b CHEK2; details: at 10 µM
Chain of Serine/threonine-protein kinase Chk2 (Homo sapiens) (O96017 whole entry): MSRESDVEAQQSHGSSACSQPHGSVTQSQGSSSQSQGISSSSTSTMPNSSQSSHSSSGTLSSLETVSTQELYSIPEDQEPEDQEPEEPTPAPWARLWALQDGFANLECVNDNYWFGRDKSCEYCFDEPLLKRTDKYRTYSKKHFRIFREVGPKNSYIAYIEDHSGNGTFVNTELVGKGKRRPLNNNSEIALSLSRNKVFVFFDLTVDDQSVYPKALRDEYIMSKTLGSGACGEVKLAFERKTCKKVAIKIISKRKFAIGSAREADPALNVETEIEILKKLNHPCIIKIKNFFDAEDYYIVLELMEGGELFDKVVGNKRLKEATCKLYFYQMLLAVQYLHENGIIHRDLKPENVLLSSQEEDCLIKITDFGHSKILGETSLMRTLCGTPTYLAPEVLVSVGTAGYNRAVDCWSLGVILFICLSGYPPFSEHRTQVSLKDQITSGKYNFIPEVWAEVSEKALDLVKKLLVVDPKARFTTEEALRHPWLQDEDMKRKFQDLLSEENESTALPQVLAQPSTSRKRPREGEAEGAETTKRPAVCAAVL

[4] = molecular target: T2, Mitogen-activated protein kinase 13 (Homo sapiens) (UniProt O15264); assay: Selectivity interaction (KinomeScan (DiscoverX)) EUB0001079a MAPK13; details: at 1 µM
T2 sequence (whole entry): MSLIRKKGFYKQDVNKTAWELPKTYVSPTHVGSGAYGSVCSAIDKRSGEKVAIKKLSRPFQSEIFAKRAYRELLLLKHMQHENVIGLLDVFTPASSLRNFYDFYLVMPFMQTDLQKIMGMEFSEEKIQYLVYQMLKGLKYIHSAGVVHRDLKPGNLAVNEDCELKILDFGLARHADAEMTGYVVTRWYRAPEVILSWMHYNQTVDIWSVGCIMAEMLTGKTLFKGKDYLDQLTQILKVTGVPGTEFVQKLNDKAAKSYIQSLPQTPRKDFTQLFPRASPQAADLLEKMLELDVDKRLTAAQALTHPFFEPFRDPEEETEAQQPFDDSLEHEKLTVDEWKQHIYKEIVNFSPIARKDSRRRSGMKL

[5] = molecular target: T3, EKC/KEOPS complex subunit TP53RK (Homo sapiens) (UniProt Q96S44); assay: Selectivity interaction (ActivX KiNativ screen (ex vivo kinase selectivity in human PBMCs)) EUB0001619a TP53RK; format: cell-based; details: PBMC, at 1 µM
T3 sequence (whole entry): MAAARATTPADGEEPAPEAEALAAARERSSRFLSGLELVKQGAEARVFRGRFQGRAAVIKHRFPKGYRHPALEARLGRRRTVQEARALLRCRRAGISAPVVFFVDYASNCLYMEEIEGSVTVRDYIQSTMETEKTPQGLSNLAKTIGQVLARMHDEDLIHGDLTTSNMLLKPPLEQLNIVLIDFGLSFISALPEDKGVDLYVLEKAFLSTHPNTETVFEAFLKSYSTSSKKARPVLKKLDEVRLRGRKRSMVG

[6] = molecular target: T4, Serine/threonine-protein kinase LATS1 (Homo sapiens) (UniProt O95835); assay: Selectivity interaction (ActivX KiNativ screen (ex vivo kinase selectivity in human PBMCs)) EUB0001619a LATS1; format: cell-based; details: PBMC, at 1 µM
T4 sequence (whole entry): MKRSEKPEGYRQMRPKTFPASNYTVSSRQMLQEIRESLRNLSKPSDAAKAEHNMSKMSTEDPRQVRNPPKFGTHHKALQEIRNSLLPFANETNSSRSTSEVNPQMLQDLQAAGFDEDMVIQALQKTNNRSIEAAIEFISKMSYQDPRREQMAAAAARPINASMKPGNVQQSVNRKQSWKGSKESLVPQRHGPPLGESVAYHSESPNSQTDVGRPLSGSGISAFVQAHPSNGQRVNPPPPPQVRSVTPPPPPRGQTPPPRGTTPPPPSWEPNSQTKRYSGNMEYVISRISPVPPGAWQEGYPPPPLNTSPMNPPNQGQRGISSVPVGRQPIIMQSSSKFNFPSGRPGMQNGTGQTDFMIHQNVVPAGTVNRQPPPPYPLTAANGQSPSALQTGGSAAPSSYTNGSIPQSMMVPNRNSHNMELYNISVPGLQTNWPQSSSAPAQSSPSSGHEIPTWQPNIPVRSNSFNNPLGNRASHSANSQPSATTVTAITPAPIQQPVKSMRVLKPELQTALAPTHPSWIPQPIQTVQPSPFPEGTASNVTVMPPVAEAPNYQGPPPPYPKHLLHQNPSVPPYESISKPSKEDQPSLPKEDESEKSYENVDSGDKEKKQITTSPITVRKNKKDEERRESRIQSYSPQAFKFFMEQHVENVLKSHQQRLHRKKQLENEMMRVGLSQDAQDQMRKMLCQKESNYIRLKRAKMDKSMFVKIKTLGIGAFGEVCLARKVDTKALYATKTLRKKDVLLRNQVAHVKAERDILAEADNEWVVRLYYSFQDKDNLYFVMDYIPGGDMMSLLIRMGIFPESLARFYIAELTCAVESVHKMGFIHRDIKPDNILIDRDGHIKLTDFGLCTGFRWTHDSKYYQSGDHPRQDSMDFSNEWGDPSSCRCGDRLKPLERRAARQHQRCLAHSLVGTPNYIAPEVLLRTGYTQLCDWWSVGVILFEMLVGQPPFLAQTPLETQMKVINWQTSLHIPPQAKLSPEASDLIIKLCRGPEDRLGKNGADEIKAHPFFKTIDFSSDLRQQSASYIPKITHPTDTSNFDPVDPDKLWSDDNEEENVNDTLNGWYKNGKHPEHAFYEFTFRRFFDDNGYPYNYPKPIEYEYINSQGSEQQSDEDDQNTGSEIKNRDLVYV

[7] = molecular target: Calcium/calmodulin-dependent protein kinase type II subunit beta (Homo sapiens) (UniProt Q13554); assay: Selectivity interaction (Kinase panel (DSF assay)) EUB0001559a CAMK2B
Chain of Calcium/calmodulin-dependent protein kinase type II subunit beta (Homo sapiens) (Q13554 whole entry): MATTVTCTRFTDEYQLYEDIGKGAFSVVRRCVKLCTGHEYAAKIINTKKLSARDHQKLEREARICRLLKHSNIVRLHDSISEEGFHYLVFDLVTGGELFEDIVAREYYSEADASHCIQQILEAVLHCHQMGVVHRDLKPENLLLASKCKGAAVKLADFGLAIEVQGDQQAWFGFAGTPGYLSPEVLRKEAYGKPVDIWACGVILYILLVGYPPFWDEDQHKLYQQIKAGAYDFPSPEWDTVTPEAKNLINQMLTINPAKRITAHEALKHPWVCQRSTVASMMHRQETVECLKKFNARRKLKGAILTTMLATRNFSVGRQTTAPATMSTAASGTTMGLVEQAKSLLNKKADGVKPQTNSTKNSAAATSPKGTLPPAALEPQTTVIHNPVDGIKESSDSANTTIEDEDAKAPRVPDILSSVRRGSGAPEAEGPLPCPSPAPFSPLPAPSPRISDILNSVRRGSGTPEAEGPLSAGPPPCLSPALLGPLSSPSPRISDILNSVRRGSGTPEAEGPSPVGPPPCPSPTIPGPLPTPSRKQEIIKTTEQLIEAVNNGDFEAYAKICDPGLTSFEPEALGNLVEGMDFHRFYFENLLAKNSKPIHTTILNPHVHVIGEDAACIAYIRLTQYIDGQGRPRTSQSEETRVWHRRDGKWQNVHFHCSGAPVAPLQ

[8] = molecular target: T5, Interleukin-1 receptor-associated kinase 4 (Homo sapiens) (UniProt Q9NWZ3); assay: Selectivity interaction (KinomeScan (DiscoverX)) EUB0000666a IRAK4; details: at 10 µM
T5 sequence (whole entry): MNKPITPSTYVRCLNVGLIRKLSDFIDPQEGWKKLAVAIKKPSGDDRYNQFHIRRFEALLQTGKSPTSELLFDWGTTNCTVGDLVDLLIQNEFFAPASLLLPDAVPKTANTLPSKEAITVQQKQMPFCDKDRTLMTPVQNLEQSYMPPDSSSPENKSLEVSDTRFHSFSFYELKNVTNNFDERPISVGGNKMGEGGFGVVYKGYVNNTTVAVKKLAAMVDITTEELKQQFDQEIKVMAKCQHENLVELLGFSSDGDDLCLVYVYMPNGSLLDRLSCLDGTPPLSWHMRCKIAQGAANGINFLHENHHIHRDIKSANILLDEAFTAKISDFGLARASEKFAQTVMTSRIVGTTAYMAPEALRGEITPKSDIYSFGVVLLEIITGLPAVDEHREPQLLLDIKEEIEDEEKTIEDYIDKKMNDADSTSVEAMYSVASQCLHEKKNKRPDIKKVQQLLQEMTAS

SMILES: Cc1cc([C@@H](C)Nc2ccccc2C(=O)O)c2nc(N3CCOCC3)cc(=O)n2c1 [AZD-6482]
% of control [1]: 100%

% of inhibition [2]: 39%
SMILES: CCc1cc(Nc2nccc(-c3c(-c4ccc(OC)c(C(=O)Nc5c(F)cccc5F)c4)nc4ccccn34)n2)c(OC)cc1N1CCC(N2CCN(S(C)(=O)=O)CC2)CC1

SMILES: COc1cc(N(C)c2ccnc3ccc(C(F)(F)F)cc23)cc(OC)c1OC
% binding [3]: 74%

SMILES: Nc1cnc(N2CCc3cc(S(=O)(=O)Nc4c(F)cc(Cl)cc4F)cc(N4CCCC4=O)c32)nc1 [TP-020n]
% of control [4]: 100%

SMILES: N#Cc1cccc(-c2c[nH]c3ncnc(N4CCOCC4)c23)c1
% of inhibition [5]: -4%
% of inhibition [6]: 5%

dTM [7]: 0 K
SMILES: CN(C(=O)c1cnn2cccnc12)c1cc2c(cc1N1CCOCC1)C(=O)N(C[C@@H](F)C(C)(C)O)C2

SMILES: O=C(NOC[C@H](O)CO)c1ccc(F)c(F)c1Nc1ccc(I)cc1F
% of control [8]: 100%
